5 compounds from paper PMC9687571, “Anti-Inflammatory Activity of Olive Oil Polyphenols—The Role of Oleacein and Its Metabolites” (Biomedicines, 2022) can be followed below.

A word on the IC50: it is the concentration that gives 50% inhibition. For orientation: inhibition means the share of the control response that was lost under treatment.

Assay [1] deals with T1, 5-LOX (Glycine max, UniProt P08170).
T1 construct: purchased Sigma-Aldrich
T1 sequence (P08170 1-839): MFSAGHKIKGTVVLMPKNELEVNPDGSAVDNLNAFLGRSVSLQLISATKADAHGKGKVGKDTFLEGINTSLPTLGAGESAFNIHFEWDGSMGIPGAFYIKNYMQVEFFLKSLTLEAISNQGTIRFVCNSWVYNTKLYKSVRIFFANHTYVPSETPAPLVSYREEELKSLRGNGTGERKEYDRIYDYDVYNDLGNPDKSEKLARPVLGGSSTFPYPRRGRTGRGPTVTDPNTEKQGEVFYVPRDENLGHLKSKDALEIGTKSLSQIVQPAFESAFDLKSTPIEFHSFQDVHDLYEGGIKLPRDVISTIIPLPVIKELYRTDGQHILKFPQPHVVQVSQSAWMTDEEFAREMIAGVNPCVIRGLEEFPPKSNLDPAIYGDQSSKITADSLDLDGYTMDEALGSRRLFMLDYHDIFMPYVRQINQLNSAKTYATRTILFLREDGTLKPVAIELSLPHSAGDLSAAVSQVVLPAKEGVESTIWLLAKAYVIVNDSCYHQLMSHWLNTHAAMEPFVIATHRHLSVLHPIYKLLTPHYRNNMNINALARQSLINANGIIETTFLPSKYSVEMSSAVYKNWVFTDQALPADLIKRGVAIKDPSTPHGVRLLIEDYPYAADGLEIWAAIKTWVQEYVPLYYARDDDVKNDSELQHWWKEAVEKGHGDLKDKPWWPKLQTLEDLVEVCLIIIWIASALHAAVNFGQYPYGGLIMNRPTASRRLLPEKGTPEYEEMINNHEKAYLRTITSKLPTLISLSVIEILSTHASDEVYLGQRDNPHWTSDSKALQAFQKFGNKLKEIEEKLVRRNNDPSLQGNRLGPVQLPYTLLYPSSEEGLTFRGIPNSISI
In words: 5-LOX inhibition assay. The format is biochemical, Glycine max (soybean). Particulars: for IC50: read-out: IC50 5-LOX pure enzyme; for inhibition at 100 µM: read-out: inhibition of the 5-LOX enzyme.

Assay [2] has as its target PLA2 + 5-LOX coupled system (Apis mellifera, UniProt P00630). In words: biochemical. The assay is classed as biochemical, Apis mellifera bee venom (PLA2), Glycine max (5-LOX). The conditions noted are these: for IC50: read-out: IC50 PLA2 + 5-LOX coupled system; for inhibition at 100 µM: read-out: inhibition of PLA2 + 5-LOX coupled system.
In assay [3] the target is T2, COX-2 (Homo sapiens, UniProt P35354).
T2 construct: purchased Cayman Chemical
T2 sequence (P35354 18-604): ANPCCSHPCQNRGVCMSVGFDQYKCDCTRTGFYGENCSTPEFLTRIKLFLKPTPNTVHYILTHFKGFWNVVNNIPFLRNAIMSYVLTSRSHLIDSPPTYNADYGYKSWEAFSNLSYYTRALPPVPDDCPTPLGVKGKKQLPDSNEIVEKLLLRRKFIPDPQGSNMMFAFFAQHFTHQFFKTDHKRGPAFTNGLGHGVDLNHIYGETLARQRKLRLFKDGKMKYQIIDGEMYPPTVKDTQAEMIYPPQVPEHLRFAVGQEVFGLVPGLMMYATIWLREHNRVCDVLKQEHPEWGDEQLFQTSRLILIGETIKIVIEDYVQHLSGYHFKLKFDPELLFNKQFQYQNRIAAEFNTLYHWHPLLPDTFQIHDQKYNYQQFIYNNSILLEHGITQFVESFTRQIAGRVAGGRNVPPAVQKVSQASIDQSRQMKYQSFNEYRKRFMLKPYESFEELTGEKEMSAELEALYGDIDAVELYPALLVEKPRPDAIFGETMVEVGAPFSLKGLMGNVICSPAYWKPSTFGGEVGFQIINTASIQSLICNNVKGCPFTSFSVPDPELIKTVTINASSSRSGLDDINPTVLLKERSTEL
In words: COX-2 inhibition assay (COX fluorescent inhibitor assay kit). The format is biochemical. The procedure:
(§1) COX assays were performed using the COX fluorescent inhibitor assay kit with some modifications. This assay was based on the reaction between prostaglandin G2 (PGG2), product of COX activity, and 10-acetyl-3,7-dihydroxyphenoxazine (ADHP), producing a highly fluorescent compound, resorufin. Briefly, 60 µL of Tris-HCl buffer (100 mM, pH 8.0), 5 µL of hemin, 5 µL of COX (COX-1 or COX-2) and 5 µL of increasing concentrations of each compound (6.25–100 µM) were added to each well in a black 96-well plate. After 5 min, at room temperature, the reaction started by adding 5 µL of ADHP and 20 µL of substrate (AA 0.5 mM with KOH 2.5 mM) in each well. After 3 min, the fluorescence was measured at 590 nm, setting the excitation wavelength at 535 nm, using a multiplate reader Synergy H1 Biotek. The results were expressed as % of COX inhibition and correspond to the mean ± SEM of four independent assays, each performed in duplicate. SC-560 was used as the positive control for COX-1 and Dup-697 was used as the positive control for COX-2 assay.

The target of assay [4] is T3, COX-1 (Ovis aries, UniProt P05979).
T3 construct: purchased Cayman Chemical
T3 sequence (P05979 25-600): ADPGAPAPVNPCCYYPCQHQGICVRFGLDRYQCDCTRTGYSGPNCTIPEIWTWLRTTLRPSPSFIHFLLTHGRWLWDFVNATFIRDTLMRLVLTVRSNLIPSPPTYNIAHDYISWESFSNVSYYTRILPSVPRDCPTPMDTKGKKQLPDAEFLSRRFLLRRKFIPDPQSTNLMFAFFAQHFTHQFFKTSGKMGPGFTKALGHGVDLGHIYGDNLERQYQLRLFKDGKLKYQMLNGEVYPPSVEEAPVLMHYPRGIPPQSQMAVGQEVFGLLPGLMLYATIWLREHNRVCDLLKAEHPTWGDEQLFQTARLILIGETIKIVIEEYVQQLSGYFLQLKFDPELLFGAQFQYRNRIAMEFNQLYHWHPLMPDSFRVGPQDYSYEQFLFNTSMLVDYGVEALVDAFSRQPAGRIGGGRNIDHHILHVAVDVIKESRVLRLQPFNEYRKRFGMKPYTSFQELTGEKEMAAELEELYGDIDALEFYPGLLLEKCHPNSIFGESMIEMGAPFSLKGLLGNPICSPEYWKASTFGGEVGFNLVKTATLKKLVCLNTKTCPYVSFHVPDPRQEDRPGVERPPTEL
Description: COX-1 inhibition assay (COX fluorescent inhibitor assay kit). The assay is classed as biochemical. As for the experimental part: as §1

“And” between values parts separate entries of the source, which are not always exact repeats. Identical values can stand only once. Like-named read-outs stand apart in the source and are kept apart here. Where only a bound is given, the exact number is not on record here.

Sequence of PLA2 + 5-LOX coupled system (P00630 whole entry, looked up): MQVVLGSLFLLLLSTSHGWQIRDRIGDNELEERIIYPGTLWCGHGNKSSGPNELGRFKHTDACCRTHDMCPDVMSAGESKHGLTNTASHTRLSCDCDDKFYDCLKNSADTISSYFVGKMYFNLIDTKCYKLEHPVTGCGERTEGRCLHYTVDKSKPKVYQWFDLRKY

Regarding `CC(=O)OCCc1ccc(O)c(O)c1` [AcHyTy, hydroxytyrosol acetate], the concentration for half-maximal inhibition (IC50) turned out to be 107 µM in assay [1], 73.5 µM in assay [2], 13300 nM in assay [3] (read-out: IC50 COX-2) and 300 nM in assay [4]. The inhibition at 100 µM in assay [1] stood at 49%; in assay [2], 86.1%.

With `OCCc1ccc(O)c(O)c1` [HyTy, hydroxytyrosol], the inhibition at 100 µM was determined as 22.2% in assay [1] (100 µM, mean ± SEM) and 18.6% in assay [2]. The IC50 was 2420 nM and 2400 nM and < 3000 nM in assay [3] (IC50 COX-2); 130 nM in assay [4].

In the case of `C/C=C(/C=O)[C@@H](CC=O)CC(=O)OCCc1ccc(O)c(O)c1` [oleacein], the inhibition at 100 µM in assay [1] (100 µM, mean ± SEM) is 58.1%; in assay [2] it was 100%. In addition, the IC50 is 45 µM in assay [1]; 16.1 µM in assay [2]; 1270 nM and < 3000 nM in assay [3] (read-out: IC50 COX-2); 1460 nM in assay [4]. Further, in assay [3] (from IC50 1.27 µM versus 16.6 µM), the “inhibitory activity on COX-2, times greater than oleocanthal” value worked out at 13 times.

`C/C=C(/C=O)[C@@H](CC=O)CC(=O)OCCc1ccc(O)cc1` [oleocanthal, reference compound]: the figures for the IC50 in assay [3] (read-out: IC50 COX-2) and in assay [4] were 16600 nM and < 100 nM, respectively.

`O=c1c(O)c(-c2ccc(O)c(O)c2)oc2cc(O)cc(O)c12` [quercetin, reference compound]: the inhibition at 100 µM in assay [1] (100 µM, mean ± SEM) was found to be 59.5%.
